{"source": "ChEMBL document CHEMBL4665757", "about": "“Design and synthesis of dual active neovibsanin derivatives based on a chemical structure merging method” (Bioorg Med Chem Lett, 2020)", "key": {"PC-12 [1]": {"test_system": "PC-12", "test": "Induction of neurite outgrowth in rat PC12 cells at 30 uM incubated for 4 days in presence of NGF by phase contrast microscopic analysis", "type": "functional, cell-based", "settings": "time 4.0 day"}, "PC-12 [2]": {"test_system": "PC-12", "test": "Induction of neurite outgrowth in rat PC12 cells at 30 uM incubated for 4 days by phase contrast microscopic analysis", "type": "functional, cell-based", "settings": "time 4.0 day"}, "[3]": {"test": "Solubility in water", "type": "physicochemical", "settings": "buffer"}, "PC-12 [4]": {"test_system": "PC-12", "test": "Induction of neurite outgrowth in rat PC12 cells at 0.3 to 30 uM incubated for 4 days in presence of NGF by phase contrast microscopic analysis", "type": "functional, cell-based", "settings": "dose microM 0.3-30, time 4.0 day"}}, "note": "The source made the active and inactive calls. No cut-off for these calls is given here.", "data": [{"smiles": "COC1(C)C[C@@H]2OCC3=CCCC[C@]32O1", "note": "(stereo not given in full)", "values": [{"measurement": "Activity", "setting": "PC-12 [1]", "value": "Active"}]}, {"smiles": "COc1ccc(/C=C/[C@@H]2CCC=C[C@H]2c2ccc(OC)c(OC)c2)cc1OC", "values": [{"measurement": "Activity", "setting": "PC-12 [2]", "value": "Active"}]}, {"smiles": "COc1ccc(/C=C/[C@@H]2C[C@@]34OC(C)(O)C[C@@H]3OCC4=C[C@H]2c2ccc(OC)c(OC)c2)cc1OC", "note": "(mixture of isomers)", "values": [{"measurement": "solubility", "setting": "[3]", "value": "Insoluble"}, {"measurement": "Activity", "setting": "PC-12 [4]", "value": "Active"}, {"measurement": "Activity", "setting": "PC-12 [2]", "value": "Active"}]}]}
